Results: patent publication US20260234180A1, “AMINO ACID DERIVATIVE, PREPARATION METHOD THEREFOR, AND PHARMACEUTICAL COMPOSITION FOR TREATING HEPATITIS, COMPRISING SAME” (priority 2021, published 2026)

Key:
[1] = target: T1, NTCP (Na+ taurocholate cotransporting peptide), HepG2-hNTCP-C4 cell line (Homo sapiens, UniProt Q14973); experiment: Inhibition of binding between FITC-labelled PreS1 and NTCP expressing cell line, flow cytometry; details: for ability to inhibit the binding between PreS1 and NTCP expressing cell lines (bile acid series) / relative fluorescence intensity compared to Comparative Example 1 (LCA): compound 50 µM; for ability to inhibit the binding between PreS1 and NTCP expressing cell lines (bile acid series): 20 nM PreS1; for relative fluorescence intensity compared to Comparative Example 1 (LCA): 20 nM PreS1, 4° C., 2 hours, lower = more inhibited binding
T1 construct: expressed in transfected cells; host or cells: HepG2-hNTCP-C4 (HepG2 cells expressing human NTCP)
T1 sequence (Q14973 1-349): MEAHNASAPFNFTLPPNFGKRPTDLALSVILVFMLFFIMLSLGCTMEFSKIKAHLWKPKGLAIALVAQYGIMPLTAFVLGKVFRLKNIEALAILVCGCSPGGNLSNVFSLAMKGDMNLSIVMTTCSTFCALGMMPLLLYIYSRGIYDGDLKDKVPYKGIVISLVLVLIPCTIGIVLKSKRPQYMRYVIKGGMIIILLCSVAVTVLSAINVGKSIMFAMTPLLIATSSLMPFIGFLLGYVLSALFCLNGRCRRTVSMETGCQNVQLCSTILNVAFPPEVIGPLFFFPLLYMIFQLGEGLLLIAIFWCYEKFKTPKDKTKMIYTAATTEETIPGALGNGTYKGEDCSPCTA
Experimental: HepG2-hNTCP-C4 cell line, a cell line expressing NTCP, was seeded in a 6 well plate at a density of 2×10^5/well and incubated at 4° C. for 30 minutes when the confluency reached 80% after overnight incubation for 2 days. Thereafter, 20 nM PreS1 (Myr-GTNL […]-Lys(FITC) (SEQ ID NO: 1)) and the compounds in Example 1, Examples 38 to 56 or the compound in Comparative Example 1 were treated by diluting in culture media at 4° C. at a concentration of 50 µM respectively, and the media was suctioned after 2 hours, followed by washing 3 times with 4° C. PBS. In order to take the cells off from the plate, 500 μl of 0.5 mM EDTA PBS solution was treated, and then incubation was performed at 37° C. for 15 minutes to check whether the cells fell off through an optical microscope. After taking off the cells by pipetting, the cells were collected in a 1.5 ml tube and centrifuged (4000 rpm, 4° C., 3 min). After suctioning the supernatant, the pellet was washed 3 times with 4° C. PBS, and then green fluorescence was measured via flow cytometry. In this case, taurocholic acid (TCA), a compound known as a substrate of NTCP to reduce the entry of HBV or HDV, was used as a positive control group.
In the graph at the top of FIG. 1, black (1) and red (2) indicate a negative control group with no treatment and an HBV-induced group (HBV preS1) solely treated with PreS1, respectively. Blue (HBV preS1+HBV entry inhibitor) (3) is the fluorescence value for each of Examples or Comparative Examples, evaluated that the closer to the negative control group, the more inhibited the binding between PreS1 and the NTCP cell line.
The experimental method was the same as in the Experimental Example 1-1, and 20 nM PreS1 and each compound were treated at 4 concentrations (0.2 μM, 2 μM, 10 μM, 50 μM).
With an expectation that there is a structure-activity relationship among compounds composed of bile acid and amino acids, for each of bile acids in Comparative Example 1 (lithocholic acid, LCA), Comparative Example 2 (ursodeoxycholic acid, UDCA), Comparative Example 3 (cholic acid, CA), Comparative Example 4 (hyodeoxycholic acid, HDCA), Comparative Example 5 (deoxycholic acid, DCA), and Comparative Example 6 (chenodeoxycholic acid, CDCA), an evaluation experiment was conducted on an ability to inhibit the binding between PreS1 and NTCP expressing cell lines, and also for Examples 1 (LCA-Ile) and Example 44 (LCA-Val) as well as the compounds in Example 2 (UDCA-Ile), Example 3 (UDCA-Val), Example 6 (CA-Ile), Example 7 (CA-Val), Example 8 (HDCA-Ile), Example 9 (HDCA-Val), Example 10 (DCA-Ile), Example 11 (DCA-Val), Example 14 (CDCA-Ile), and Example 15 (CDCA-Val) in which bile acid parts (lithocholic acid) of Example 1 (LCA-Ile) and Example 44 (LCA-Val) were substituted with other types of bile acids in Comparative Examples 2 to 6, an evaluation experiment was conducted on an ability to inhibit the binding between PreS1 and NTCP expressing cell lines. The experimental method was the same as in the Experimental Example 1-1, and 18 compounds in the Comparative Examples 1 to 6, Examples 1 to 3, Examples 6 to 11, Examples 14 to 15, and Example 44 were treated at a concentration of 50 µM along with 20 nM PreS1.
In FIG. 9, an evaluation experiment was conducted to check a degree of inhibiting the binding between PreS1 and NTCP expressing cell lines for compounds in Examples 4 to 5, Examples 12 to 13, Examples 16 to 17, and Comparative Examples 2 (ursodeoxycholic acid, UDCA), Comparative Examples 5 (deoxycholic acid, DCA), and Comparative Examples 6 (chenodeoxycholic acid, CDCA) according to the present disclosure. The experimental method was the same as the Experimental Example 1-1.
In the Experimental Examples 1-4, it was determined whether there is additionally concentration dependence for Example 4 (UDCA-Trp), a compound with good inhibitory ability. […]

HBV virus = experiment: HBV infection of HepG2-NTCP cells, HBeAg ELISA analysis; assay type: cell-based, hepatitis B virus (HBV); details: 20 μM, O.D. 450 nm
Experimental: Specifically, the HepG2-NTCP cell line was cultured on a 6-well plate, incubation was performed overnight, HBV inhibitors were treated at a concentration of 20 μM, and the positive control Myrcludex-B (MyrB) was treated at a concentration of 200 nM, followed by culture for 24 hours. After HBV infection into the cells to make HBV 3000 genome equivalent per ml/cell (Geq/cell), the cell culture medium was replaced (medium changing, MC) a day after the viral infection to remove the virus unattached to cell membranes. In order to measure an amount of virus that entered the cell, medium changing (MC) was performed once more 4 days after viral infection. 2 days after replacement, HBeAg ELISA analysis was performed using a supernatant, and Southern blot analysis was performed with cell pellets.
HBeAg ELISA analysis was performed using an HBeAg ELISA kit (sanbio, Wantai HBeAg ELISA, cat #WB-2496) for the supernatant obtained by the method in Experimental Example 4-1.
First, a negative control group (Mock), positive control group (MyrB), and samples according to the present disclosure were loaded, by 50 μl each to be triplicate, onto a 96-well plate coated with capture Ab. In this case, Example 1 (LCA-ILE), Example 44 (LCA-Val), Example 52 (LCA-Tyr), Example 51 (LCA-Ser), Example 55 (LCA-Glu), Example 2 (UDCA-Ile), Example 3 (UDCA-Val), Example 25 (LCA-Val-Trp), Example 10 (DCA-Ile), Comparative Example 1 (LCA), and Comparative Example 2 (UDCA) were used as the sample.
The HRP-conjugated detection antibody was loaded into each well by 50 μl, followed by a reaction at 37° C. for 30 minutes. Washing buffer (1×PBS, 0.5% Tween20) was added by 200 μl, and washing was performed 5 times. 50 μl of chromogen solution A and 50 μl of chromogen solution B were added to each well, and a reaction was carried out in the darkness at 37° C. for 15 minutes. The stop solution was added to each well by 50 μl each to stop the reaction, and the amount of HBeAg was measured by measuring the absorbance (optical density, O.D.) level in the 450 nm wavelength band.

CC(C)[C@H](NC(=O)CC[C@@H](C)[C@H]1CC[C@H]2[C@@H]3C[C@H](O)[C@@H]4C[C@H](O)CC[C@]4(C)[C@H]3CC[C@]12C)C(=O)O [Example 9, (S)-2-((R)-4-((3R,5R,6S,8S,9S,10R,13R,14S,17R)-3,6-dihydroxy-10,13-dimethyl-hexadecahydro-1H-cyclopenta[a]phenanthren-17-yl)pentanamido)-3-methylbutanoic acid]
ability to inhibit the binding between PreS1 and NTCP expressing cell lines (bile acid series) [1]: relatively excellent

C[C@H](CCC(=O)N[C@@H](CS)C(=O)O)[C@H]1CC[C@H]2[C@@H]3CC[C@@H]4C[C@H](O)CC[C@]4(C)[C@H]3CC[C@]12C [Example 40, (R)-2-((R)-4-((3R,5R,8R,9S,10S,13R,14S,17R)-3-hydroxy-10,13-dimethyl-hexadecahydro-1H-cyclopenta[a]phenanthren-17-yl)pentanamido)-3-mercaptopropanoic acid]
relative fluorescence intensity compared to Comparative Example 1 (LCA) [1]: low and lower

C[C@H](NC(=O)CC[C@@H](C)[C@H]1CC[C@H]2[C@@H]3CC[C@@H]4C[C@H](O)CC[C@]4(C)[C@H]3CC[C@]12C)C(=O)O [Example 46, (S)-2-((R)-4-((3R,5R,8R,9S,10S,13R,14S,17R)-3-hydroxy-10,13-dimethyl-hexadecahydro-1H-cyclopenta[a]phenanthren-17-yl)pentanamido)-3-propanoic acid]
relative fluorescence intensity compared to Comparative Example 1 (LCA) [1]: low

C[C@H](CCC(=O)N[C@@H](CCCCN)C(=O)O)[C@H]1CC[C@H]2[C@@H]3CC[C@@H]4C[C@H](O)CC[C@]4(C)[C@H]3CC[C@]12C [Example 56, (S)-6-amino-2-((R)-4-((3R,5R,8R,9S,10S,13R,14S,17R)-3-hydroxy-10,13-dimethyl-hexadecahydro-1H-cyclopenta[a]phenanthren-17-yl)pentanamido)hexanoic acid]
relative fluorescence intensity compared to Comparative Example 1 (LCA) [1]: low

CSCC[C@H](NC(=O)CC[C@@H](C)[C@H]1CC[C@H]2[C@@H]3CC[C@@H]4C[C@H](O)CC[C@]4(C)[C@H]3CC[C@]12C)C(=O)O [Example 48, (S)-2-((R)-4-((3R,5R,8R,9S,10S,13R,14S,17R)-3-hydroxy-10,13-dimethyl-hexadecahydro-1H-cyclopenta[a]phenanthren-17-yl)pentanamido)-4-(methylthio)butanoic acid]
relative fluorescence intensity compared to Comparative Example 1 (LCA) [1]: low and lower

C[C@H](CCC(=O)N[C@@H](Cc1ccc(O)cc1)C(=O)O)[C@H]1CC[C@H]2[C@@H]3[C@H](O)C[C@@H]4C[C@H](O)CC[C@]4(C)[C@H]3CC[C@]12C [Example 17, (S)-2-((R)-4-((3R,5S,7R,8R,9S,10S,13R,14S,17R)-3,7-dihydroxy-10,13-dimethyl-hexadecahydro-1H-cyclopenta[a]phenanthren-17-yl)pentanamido)-3-(4-hydroxyphenyl)propanoic acid]
relative fluorescence intensity in comparison with the parent bile acid Comparative Example ([1]; vs Comparative Example 2 (UDCA), 5 (DCA) or 6 (CDCA), method as Experimental Example 1-1): low

CC[C@@H](C)[C@H](NC(=O)CC[C@@H](C)[C@H]1CC[C@H]2[C@@H]3C[C@H](O)[C@@H]4C[C@H](O)CC[C@]4(C)[C@H]3CC[C@]12C)C(=O)O [Example 8, (2S,3R)-2-((R)-4-((3R,5R,6S,8S,9S,10R,13R,14S,17R)-3,6-dihydroxy-10,13-dimethyl-hexadecahydro-1H-cyclopenta[a]phenanthren-17-yl)pentanamido)-3-methylpentanoic acid]
ability to inhibit the binding between PreS1 and NTCP expressing cell lines (bile acid series) [1]: relatively excellent

C[C@H](CCC(=O)N[C@@H](CO)C(=O)O)[C@H]1CC[C@H]2[C@@H]3CC[C@@H]4C[C@H](O)CC[C@]4(C)[C@H]3CC[C@]12C [Example 51, (S)-3-hydroxy-2-((R)-4-((3R,5R,8R,9S,10S,13R,14S,17R)-3-hydroxy-10,13-dimethyl-hexadecahydro-1H-cyclopenta[a]phenanthren-17-yl)pentanamido)propanoic acid]
HBeAg absorbance level relative to the negative control group (Mock) (HBV virus): relatively lower | relative fluorescence intensity compared to Comparative Example 1 (LCA) [1]: low
